Data on two sequences can be found in paper PMC7894603 (Science translational medicine, 2020).

The subject of the experiment is Kras and Trp53 mutant (KP) lung adenocarcinoma mouse model. In kind it is in vivo. The conditions noted are these: IT, urine 60-120 min; for change of KP/control reporter difference over 5, 7.5 and 10.5 weeks: MeanNormPARKP/MeanNormPARControl.

Turning to GGLGPKGQTGC [PP07], the “change of KP/control reporter difference over 5, 7.5 and 10.5 weeks” value is given as “amplified over time”.
For GGSGSKIIGGGC [PP11], the “change of KP/control reporter difference over 5, 7.5 and 10.5 weeks” value is “amplified over time”. In addition, under “10.5 weeks after tumor initiation, mean-normalized PAR”, the “urinary reporter in KP versus healthy mice” value is “most significantly enriched reporter”.
